Data as given in ChEMBL document CHEMBL4184317, “Discovery of Tetrahydroquinoxalines as Bromodomain and Extra-Terminal Domain (BET) Inhibitors with Selectivity for the Second Bromodomain” (J Med Chem, 2018).

Experiments:
[1] = target: Bromodomain adjacent to zinc finger domain protein 2B (Homo sapiens, UniProt Q9UIF8); experiment: Binding affinity to human partial length DNA-tagged BAZ2B expressed in bacterial by BROMOscan method
Homo sapiens [2] = species: Homo sapiens; experiment: Selectivity ratio of IC50 for BRD3 BD1 (unknown origin) to IC50 for BRD3 BD2 (unknown origin)
[3] = target: T1, Bromodomain testis-specific protein (Homo sapiens, UniProt Q58F21); experiment: Inhibition of BRDT BD1 (unknown origin) after 30 mins by TR-FRET assay
Homo sapiens [4] = species: Homo sapiens; experiment: Selectivity ratio of IC50 for BRDT BD1 (unknown origin) to IC50 for BRDT BD2 (unknown origin)
Protein polybromo-1 = Protein polybromo-1 (Homo sapiens, UniProt Q86U86); experiment: Binding affinity to human partial length DNA-tagged PBRM1 BD1 expressed in bacteria by BROMOscan method
[5] = target: Bromodomain-containing protein 3 (Homo sapiens, UniProt Q15059); experiment: Inhibition of BRD3 BD2 (unknown origin) after 30 mins by TR-FRET assay
[6] = target: Histone acetyltransferase p300 (Homo sapiens, UniProt Q09472); experiment: Binding affinity to human partial length DNA-tagged EP300 expressed in bacteria by BROMOscan method
[7] = target: Bromodomain adjacent to zinc finger domain protein 2A (Homo sapiens, UniProt Q9UIF9); experiment: Binding affinity to human partial length DNA-tagged BAZ2A expressed in bacterial by BROMOscan method
[8] = target: Histone acetyltransferase KAT2B (Homo sapiens, UniProt Q92831); experiment: Binding affinity to human partial length DNA-tagged PCAF expressed in mammalian expression system by BROMOscan method
[9] = target: SWI/SNF-related matrix-associated actin-dependent regulator of chromatin subfamily A member 2 (Homo sapiens, UniProt P51531); experiment: Binding affinity to human partial length DNA-tagged SMARCA2 expressed in bacteria by BROMOscan method
SWI/SNF-related matrix-associated actin-dependent regulator of chromatin subfamily A member 2, sequence (P51531 whole entry): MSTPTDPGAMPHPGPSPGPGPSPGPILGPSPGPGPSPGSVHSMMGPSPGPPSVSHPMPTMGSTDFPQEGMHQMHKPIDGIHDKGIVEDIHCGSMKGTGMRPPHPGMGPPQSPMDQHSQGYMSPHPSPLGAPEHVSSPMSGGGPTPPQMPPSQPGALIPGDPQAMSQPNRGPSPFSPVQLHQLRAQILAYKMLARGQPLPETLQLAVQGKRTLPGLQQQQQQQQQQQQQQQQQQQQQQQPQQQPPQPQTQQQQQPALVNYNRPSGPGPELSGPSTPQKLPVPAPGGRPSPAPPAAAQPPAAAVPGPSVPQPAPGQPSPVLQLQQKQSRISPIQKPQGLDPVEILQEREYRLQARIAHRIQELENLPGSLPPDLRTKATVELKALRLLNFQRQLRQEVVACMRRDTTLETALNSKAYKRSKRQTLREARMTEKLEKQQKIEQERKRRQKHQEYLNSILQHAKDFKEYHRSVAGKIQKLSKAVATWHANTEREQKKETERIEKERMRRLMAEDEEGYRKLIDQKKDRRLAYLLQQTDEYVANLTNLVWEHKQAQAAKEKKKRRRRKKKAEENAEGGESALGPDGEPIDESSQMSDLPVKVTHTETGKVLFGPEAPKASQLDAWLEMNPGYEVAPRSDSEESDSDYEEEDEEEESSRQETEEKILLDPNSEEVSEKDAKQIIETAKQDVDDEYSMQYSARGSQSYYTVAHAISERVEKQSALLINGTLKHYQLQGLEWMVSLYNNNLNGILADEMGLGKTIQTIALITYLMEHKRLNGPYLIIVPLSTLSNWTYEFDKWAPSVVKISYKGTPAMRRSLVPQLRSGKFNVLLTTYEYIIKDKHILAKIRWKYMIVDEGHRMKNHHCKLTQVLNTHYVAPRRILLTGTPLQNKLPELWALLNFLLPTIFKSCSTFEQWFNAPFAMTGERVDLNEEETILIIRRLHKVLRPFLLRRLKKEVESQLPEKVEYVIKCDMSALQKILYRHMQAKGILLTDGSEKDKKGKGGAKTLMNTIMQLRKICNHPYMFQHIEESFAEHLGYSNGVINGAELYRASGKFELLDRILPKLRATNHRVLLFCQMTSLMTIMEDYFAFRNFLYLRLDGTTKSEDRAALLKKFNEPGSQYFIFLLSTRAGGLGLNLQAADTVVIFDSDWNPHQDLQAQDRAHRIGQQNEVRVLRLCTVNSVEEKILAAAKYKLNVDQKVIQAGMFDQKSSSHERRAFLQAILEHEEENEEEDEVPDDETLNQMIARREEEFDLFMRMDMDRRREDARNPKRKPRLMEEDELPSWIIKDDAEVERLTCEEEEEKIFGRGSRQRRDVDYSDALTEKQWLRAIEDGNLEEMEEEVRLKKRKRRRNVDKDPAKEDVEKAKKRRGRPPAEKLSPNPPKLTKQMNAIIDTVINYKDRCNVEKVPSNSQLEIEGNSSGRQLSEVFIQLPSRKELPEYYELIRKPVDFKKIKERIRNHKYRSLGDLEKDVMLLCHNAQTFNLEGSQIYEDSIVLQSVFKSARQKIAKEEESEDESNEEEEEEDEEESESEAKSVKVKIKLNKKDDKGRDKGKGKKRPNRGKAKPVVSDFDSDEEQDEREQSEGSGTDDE

PBMC = experiment: cells; settings: Homo sapiens, read-out: pIC50 (converted)
Description: Antiinflammatory activity in human PBMC assessed as inhibition of LPS-induced MCP1 release preincubated for 30 mins followed by LPS challenge measured after 24 hrs by immunoassay

[10] = target: Bromodomain-containing protein 9 (Homo sapiens, UniProt Q9H8M2); experiment: Binding affinity to human partial length DNA-tagged BRD9 isoform 1 expressed in bacteria by BROMOscan method
[11] = target: Bromodomain-containing protein 4 (Homo sapiens, UniProt O60885); experiment: Binding affinity to human partial length DNA-tagged BRD4 isoform long BD2 expressed in bacterial by BROMOscan method
[12] = target: SWI/SNF-related matrix-associated actin-dependent regulator of chromatin subfamily A member 4 (Homo sapiens, UniProt P51532); experiment: Binding affinity to human partial length DNA-tagged SMARCA4 expressed in bacteria by BROMOscan method
[13] = target: Bromodomain-containing protein 7 (Homo sapiens, UniProt Q9NPI1); experiment: Binding affinity to human partial length DNA-tagged BRD7 expressed in mammalian expression system by BROMOscan method
[14] = target: T2, Bromodomain-containing protein 2 (Homo sapiens, UniProt P25440); experiment: Binding affinity to human partial length DNA-tagged BRD2 isoform 1 BD1 expressed in bacterial by BROMOscan method
T2 sequence (P25440 whole entry, canonical isoform): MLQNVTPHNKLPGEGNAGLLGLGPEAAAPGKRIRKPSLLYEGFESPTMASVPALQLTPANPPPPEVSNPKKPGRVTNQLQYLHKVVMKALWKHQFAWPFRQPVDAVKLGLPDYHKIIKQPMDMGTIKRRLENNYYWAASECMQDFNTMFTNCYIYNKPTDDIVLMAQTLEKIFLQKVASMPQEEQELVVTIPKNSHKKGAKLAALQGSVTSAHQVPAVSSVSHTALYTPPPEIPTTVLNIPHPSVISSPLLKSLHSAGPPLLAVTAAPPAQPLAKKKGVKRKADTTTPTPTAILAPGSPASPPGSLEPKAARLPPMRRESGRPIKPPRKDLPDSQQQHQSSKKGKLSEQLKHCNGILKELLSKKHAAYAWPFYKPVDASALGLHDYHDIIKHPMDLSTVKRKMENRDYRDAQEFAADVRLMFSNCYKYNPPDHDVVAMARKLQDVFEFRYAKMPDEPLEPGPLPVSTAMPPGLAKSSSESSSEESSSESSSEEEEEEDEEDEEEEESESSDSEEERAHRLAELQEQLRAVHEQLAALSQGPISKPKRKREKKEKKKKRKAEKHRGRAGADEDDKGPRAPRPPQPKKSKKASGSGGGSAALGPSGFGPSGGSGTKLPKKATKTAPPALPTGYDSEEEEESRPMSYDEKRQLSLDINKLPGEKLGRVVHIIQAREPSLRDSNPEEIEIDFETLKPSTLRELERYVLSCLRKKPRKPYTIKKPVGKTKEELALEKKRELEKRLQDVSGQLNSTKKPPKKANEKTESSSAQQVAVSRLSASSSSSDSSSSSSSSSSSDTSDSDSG

[15] = target: Nucleosome-remodeling factor subunit BPTF (Homo sapiens, UniProt Q12830); experiment: Binding affinity to human partial length DNA-tagged FALZ isoform1 expressed in bacteria by BROMOscan method
[16] = target: Transcription initiation factor TFIID subunit 1-like (Homo sapiens, UniProt Q8IZX4); experiment: Binding affinity to human partial length DNA-tagged TAF1L BD2 expressed in bacteria by BROMOscan method
[17] = Solubility of the compound in pH 7.4 phosphate buffered saline by chemiluminescent nitrogen detection method; assay type: physicochemical
[18] = target: Bromodomain and PHD finger-containing protein 3 (Homo sapiens, UniProt Q9ULD4); experiment: Binding affinity to human partial length DNA-tagged BRPF3 expressed in bacteria by BROMOscan method
Blood = experiment: Antiinflammatory activity in human whole blood assessed as inhibition of LPS-induced MCP1 release preincubated for 30 mins followed by LPS challenge measured after 24 hrs by immunoassay; assay type: functional, tissue-based
[19] = target: T1, Bromodomain testis-specific protein; experiment: Binding affinity to human partial length DNA-tagged BRDT isoform b BD2 expressed in bacterial by BROMOscan method
[20] = target: Transcription intermediary factor 1-alpha (Homo sapiens, UniProt O15164); experiment: Binding affinity to human partial length DNA-tagged TRIM24(PHD,Bromo.) expressed in bacteria by BROMOscan method
[21] = target: T1, Bromodomain testis-specific protein; experiment: Selectivity ratio of Kd for human partial length DNA-tagged BRDT isoform b BD1 to Kd for human partial length DNA-tagged BRDT isoform b BD2
[22] = target: Bromodomain and WD repeat-containing protein 1 (Homo sapiens, UniProt Q9NSI6); experiment: Binding affinity to human partial length DNA-tagged […] BD2 expressed in bacterial by BROMOscan method
[23] = target: Bromodomain-containing protein 8 (Homo sapiens, UniProt Q9H0E9); experiment: Binding affinity to DNA-tagged BRD8 (unknown origin) by BROMOscan method
CREB-binding protein = CREB-binding protein (Homo sapiens, UniProt Q92793); experiment: Binding affinity to human partial length DNA-tagged CREBBP expressed in bacteria by BROMOscan method
CREB-binding protein, sequence (Q92793 whole entry): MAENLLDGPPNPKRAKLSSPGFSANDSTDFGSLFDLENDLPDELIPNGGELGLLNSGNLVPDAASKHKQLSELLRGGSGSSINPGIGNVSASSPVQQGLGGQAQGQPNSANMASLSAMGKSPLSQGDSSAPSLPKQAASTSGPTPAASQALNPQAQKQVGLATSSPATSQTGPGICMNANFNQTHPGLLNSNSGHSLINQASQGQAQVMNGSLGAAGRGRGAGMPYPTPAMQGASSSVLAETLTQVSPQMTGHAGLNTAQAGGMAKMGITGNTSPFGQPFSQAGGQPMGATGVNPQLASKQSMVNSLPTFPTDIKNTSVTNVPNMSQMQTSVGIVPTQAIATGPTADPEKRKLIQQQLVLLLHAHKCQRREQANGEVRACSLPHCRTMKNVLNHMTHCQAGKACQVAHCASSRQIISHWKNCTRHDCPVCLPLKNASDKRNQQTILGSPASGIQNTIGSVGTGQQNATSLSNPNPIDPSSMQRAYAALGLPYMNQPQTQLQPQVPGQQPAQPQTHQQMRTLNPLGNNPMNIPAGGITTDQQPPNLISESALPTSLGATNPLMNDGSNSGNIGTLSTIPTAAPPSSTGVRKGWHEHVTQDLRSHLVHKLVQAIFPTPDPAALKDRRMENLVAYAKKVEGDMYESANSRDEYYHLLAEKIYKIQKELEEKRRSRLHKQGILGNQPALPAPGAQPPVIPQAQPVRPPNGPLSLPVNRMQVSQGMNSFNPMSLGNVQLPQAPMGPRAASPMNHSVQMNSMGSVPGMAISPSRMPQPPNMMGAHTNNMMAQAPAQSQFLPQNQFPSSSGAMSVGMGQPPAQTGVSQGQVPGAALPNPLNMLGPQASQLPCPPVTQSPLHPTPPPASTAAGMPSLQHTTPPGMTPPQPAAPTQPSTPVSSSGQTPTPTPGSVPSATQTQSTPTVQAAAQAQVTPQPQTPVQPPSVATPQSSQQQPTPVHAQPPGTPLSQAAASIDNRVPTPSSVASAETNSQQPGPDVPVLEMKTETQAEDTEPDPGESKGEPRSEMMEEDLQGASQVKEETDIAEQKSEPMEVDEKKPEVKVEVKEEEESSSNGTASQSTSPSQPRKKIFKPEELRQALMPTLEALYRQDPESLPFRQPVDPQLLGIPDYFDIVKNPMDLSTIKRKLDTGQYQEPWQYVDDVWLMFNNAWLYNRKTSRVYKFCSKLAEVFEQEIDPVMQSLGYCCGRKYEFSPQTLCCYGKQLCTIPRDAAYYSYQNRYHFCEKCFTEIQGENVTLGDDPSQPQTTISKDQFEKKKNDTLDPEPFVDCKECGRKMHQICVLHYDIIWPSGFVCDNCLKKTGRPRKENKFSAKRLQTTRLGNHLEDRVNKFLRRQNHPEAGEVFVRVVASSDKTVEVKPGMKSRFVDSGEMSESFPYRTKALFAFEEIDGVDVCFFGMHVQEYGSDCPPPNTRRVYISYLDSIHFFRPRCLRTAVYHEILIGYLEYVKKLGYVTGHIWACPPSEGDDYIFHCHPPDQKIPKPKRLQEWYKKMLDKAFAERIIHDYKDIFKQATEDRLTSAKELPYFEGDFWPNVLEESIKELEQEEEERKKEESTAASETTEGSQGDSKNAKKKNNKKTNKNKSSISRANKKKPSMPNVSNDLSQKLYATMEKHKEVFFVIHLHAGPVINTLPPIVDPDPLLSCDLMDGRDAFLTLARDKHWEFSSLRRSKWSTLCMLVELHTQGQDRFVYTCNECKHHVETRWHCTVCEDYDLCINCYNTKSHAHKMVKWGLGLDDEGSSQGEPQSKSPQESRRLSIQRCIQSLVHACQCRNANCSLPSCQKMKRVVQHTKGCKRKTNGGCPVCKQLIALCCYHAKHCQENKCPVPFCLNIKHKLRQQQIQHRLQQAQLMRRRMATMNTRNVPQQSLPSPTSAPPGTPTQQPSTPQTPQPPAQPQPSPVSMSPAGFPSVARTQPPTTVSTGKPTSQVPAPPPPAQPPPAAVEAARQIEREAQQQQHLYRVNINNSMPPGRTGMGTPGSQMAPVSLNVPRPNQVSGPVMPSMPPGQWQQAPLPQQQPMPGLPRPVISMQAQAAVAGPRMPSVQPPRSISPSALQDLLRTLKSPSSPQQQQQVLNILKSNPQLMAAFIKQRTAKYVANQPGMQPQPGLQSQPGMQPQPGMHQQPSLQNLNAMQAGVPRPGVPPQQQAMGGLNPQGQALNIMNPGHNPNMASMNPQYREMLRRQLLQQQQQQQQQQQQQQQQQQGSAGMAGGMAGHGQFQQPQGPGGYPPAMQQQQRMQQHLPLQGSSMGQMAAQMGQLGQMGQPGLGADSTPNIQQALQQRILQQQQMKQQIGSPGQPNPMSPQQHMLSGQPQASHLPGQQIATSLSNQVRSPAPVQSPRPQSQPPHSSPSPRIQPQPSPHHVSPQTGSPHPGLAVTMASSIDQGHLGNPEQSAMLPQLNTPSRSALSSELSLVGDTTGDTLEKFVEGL

[24] = target: T2, Bromodomain-containing protein 2; experiment: Inhibition of human BRD2 BD1 after 30 mins by TR-FRET assay

CC(=O)N1c2ccc(C3=CCNCC3)cc2N(Cc2ccccc2CO)C[C@@H]1C1CC1
Kd [1]: > 30.2 µM | Ratio IC50 (Homo sapiens [2]): 25 | IC50 [3]: 1.58 µM | Ratio IC50 (Homo sapiens [4]): 8 | Kd (Protein polybromo-1): > 30.2 µM | IC50 [5]: 0.0501 µM | Kd [6]: > 30.2 µM | Kd [7]: > 30.2 µM | Kd [8]: > 30.2 µM | Kd [9]: > 30.2 µM | IC50 (PBMC): 0.0398 µM | Kd [10]: > 30.2 µM | Kd [11]: 0.00661 µM | Kd [12]: > 30.2 µM | Kd [13]: > 30.2 µM | Kd [14]: 1.32 µM | Kd [15]: > 30.2 µM | Kd [16]: > 30.2 µM | solubility [17]: ≥ 418 µM | Kd [18]: > 30.2 µM | IC50 (Blood): 1 µM | Kd [19]: 0.0209 µM | Kd [20]: > 30.2 µM | Selectivity ratio [21]: 91 | Kd [22]: 15.1 µM | Kd [23]: > 30.2 µM | Kd (CREB-binding protein): > 30.2 µM | IC50 [24]: 2.51 µM
